Experiments:
[1] = tested on: LTB4 synthesis in human whole blood; experiment: human whole blood (HWB) assay, inhibition of LTB4 production; type: cell-based; conditions: heparinized human whole blood, calcimycin 20 μM stimulation, plasma LTB4
Summary of the method: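 Plasma LTB4, quantified by HTRF immunoassay, is the read-out after calcimycin challenge (20 μM final, 30 min, 37 °C) of heparinized whole blood that had been pretreated with compound for 15 min at 37 °C; values given as IC50.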

human LTA4 hydrolase = biological target: T1, human LTA4 hydrolase (Homo sapiens, UniProt P09960); experiment: LTA4H Enzyme assay (peptidase, Arg-AMC cleavage); type: biochemical; conditions: LTA4H enzyme 1 nM, Arg-AMC substrate 50 μM, room temperature 1 h, fluorescence 380/460 nm
T1 sequence (P09960 1-611): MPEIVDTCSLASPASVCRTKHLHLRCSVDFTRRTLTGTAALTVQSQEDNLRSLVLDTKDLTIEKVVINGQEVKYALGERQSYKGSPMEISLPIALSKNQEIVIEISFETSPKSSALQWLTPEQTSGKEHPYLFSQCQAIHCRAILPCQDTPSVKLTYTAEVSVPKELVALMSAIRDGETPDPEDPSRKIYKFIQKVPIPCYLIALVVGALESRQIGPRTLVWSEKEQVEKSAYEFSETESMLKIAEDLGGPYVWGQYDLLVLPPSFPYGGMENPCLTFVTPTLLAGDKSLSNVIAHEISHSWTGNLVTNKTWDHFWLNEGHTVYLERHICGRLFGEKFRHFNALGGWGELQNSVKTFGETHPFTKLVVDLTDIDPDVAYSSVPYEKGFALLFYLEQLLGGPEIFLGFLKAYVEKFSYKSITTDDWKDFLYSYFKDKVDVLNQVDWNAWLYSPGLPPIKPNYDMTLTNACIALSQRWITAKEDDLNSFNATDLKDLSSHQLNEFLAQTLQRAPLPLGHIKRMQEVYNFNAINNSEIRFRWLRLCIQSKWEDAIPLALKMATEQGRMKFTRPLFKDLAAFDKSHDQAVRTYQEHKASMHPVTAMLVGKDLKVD
Summary of the method: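 Human LTA4H (1 nM final) incubated with compound and Arg-AMC (50 μM final) in 50 mM Tris-HCl pH 7.5, 100 mM KCl, 0.5% BSA, 1 h at room temperature. Product read as AMC fluorescence (ex 380/em 460 nm); IC50 reported.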

Row | SMILES | IC50 [1] [nM] | IC50 (human LTA4 hydrolase) [nM]
1 | COCCN(C)Cc1ccc2cc(Oc3ccc(-c4ccn[nH]4)cn3)ccc2n1 [Example 122, (2-Methoxy-ethyl)-methyl-{6-[5-(2H-pyrazol-3-yl)-pyridin-2-yloxy]-quinolin-2-ylmethyl}-amine] | 200 | 0.97
2 | COCC(=O)N1CCN(Cc2ccc3cc(Oc4ccc(-c5ccn[nH]5)cn4)ccc3n2)CC1 [Example 28, 2-methoxy-1-(4-{6-[5-(2H-pyrazol-3-yl)-pyridin-2-yloxy]-quinolin-2-ylmethyl}-piperazin-1-yl)-ethanone] | 150 | 0.87
3 | CC(=O)N1CCC(N(C)Cc2ccc3cc(Oc4ccc(-c5ccn[nH]5)cn4)ccc3n2)CC1 [Example 110, 1-[4-(Methyl-{6-[5-(2H-pyrazol-3-yl)-pyridin-2-yloxy]-quinolin-2-ylmethyl}-amino)-piperidin-1-yl]-ethanone] | 240 | 0.7
4 | CCCN(CCO)Cc1nc2cc(Oc3ccc(-c4ccn[nH]4)cc3)ccc2[nH]1 [Example 199, 2-(Propyl-{5-[4-(2H-pyrazol-3-yl)-phenoxy]-1H-benzoimidazol-2-ylmethyl}-amino)-ethanol] | 190 | 0.13
5 | c1cc(-c2ccc(Oc3ccc4nc(CN5CCCC5)cn4c3)cc2)[nH]n1 [Example 246, 6-[4-(2H-Pyrazol-3-yl)-phenoxy]-2-pyrrolidin-1-ylmethyl-imidazo[1,2-a]pyridine] | 180 | 0.17
6 | CC(=O)N[C@@H]1C[C@H]2CC[C@@H](C1)N2Cc1ccc2cc(Oc3ccc(-c4ccn[nH]4)cc3)ccc2n1 [Example 248, N-((exo)-8-{6-[4-(2H-Pyrazol-3-yl)-phenoxy]-quinolin-2-ylmethyl}-8-aza-bicyclo[3.2.1]oct-3-yl)-acetamide] | 200 | 0.083
7 | CC(=O)N1C[C@H]2C[C@@H]1CN2Cc1ccc2cc(Oc3ccc(-c4ccn[nH]4)cn3)ccc2n1 [Example 147, 1-((1R,4R)-5-{6-[5-(2H-Pyrazol-3-yl)-pyridin-2-yloxy]-quinolin-2-ylmethyl}-2,5-diaza-bicyclo[2.2.1]hept-2-yl)-ethanone] | 160 | 0.48
8 | O=C(CO)N1C2CCC1CN(Cc1ccc3cc(Oc4ccc(-c5ccn[nH]5)cn4)ccc3n1)C2 [Example 44, 2-Hydroxy-1-(3-{6-[5-(2H-pyrazol-3-yl)-pyridin-2-yloxy]-quinolin-2-ylmethyl}-3,8-diaza-bicyclo[3.2.1]oct-8-yl)-ethanone] | 410 | 0.71
9 | c1cc(-c2ccc(Oc3ccc4[nH]c(CNC5CCCC5)nc4c3)cc2)[nH]n1 [Example 188, Cyclopentyl-{5-[4-(2H-pyrazol-3-yl)-phenoxy]-1H-benzoimidazol-2-ylmethyl}-amine] | 160 | 0.13
10 | c1cncc(Cc2nc3cc(Oc4ccc(-c5ccn[nH]5)cc4)ccc3[nH]2)c1 [Example 73, 5-[4-(2H-Pyrazol-3-yl)-phenoxy]-2-pyridin-3-ylmethyl-1H-benzoimidazole] | 330 | 0.36
11 | O=C(CO)N1C[C@@H]2C[C@H]1CN2Cc1ccc2cc(Oc3ccc(-c4ccn[nH]4)cn3)ccc2n1 [Example 139, 2-Hydroxy-1-((1S,4S)-5-{6-[5-(2H-pyrazol-3-yl)-pyridin-2-yloxy]-quinolin-2-ylmethyl}-2,5-diaza-bicyclo[2.2.1]hept-2-yl)-ethanone] | 200 | 0.39
12 | CN(Cc1nc2cc(Oc3ccc(-c4ccn[nH]4)cc3)ccc2[nH]1)[C@H]1CCOC1 [Example 77, Methyl-{5-[4-(2H-pyrazol-3-yl)-phenoxy]-1H-benzoimidazol-2-ylmethyl}-(S)-tetrahydro-furan-3-yl-amine] | 88 | 0.099
13 | CCN(Cc1nc2cc(Oc3ccc(-c4ccn[nH]4)cc3)ccc2[nH]1)C(=O)C1CC1 [Example 235, Cyclopropanecarboxylic acid ethyl-{5-[4-(2H-pyrazol-3-yl)-phenoxy}-1H-benzoimidazol-2-ylmethyl}-amide] | 180 | 0.43
14 | CC1(C)COCCN1Cc1nc2cc(Oc3ccc(-c4ccn[nH]4)cc3)ccc2[nH]1 [Example 182, 2-(3,3-Dimethyl-moprholin-4-ylmethyl)-5-[4-(2H-pyrazol-3-yl)-phenoxy]-1H-benzoimidazole] | 150 | 0.062

Further compounds by falling IC50 [1], results first:

Row | IC50 [1] [nM] | IC50 (human LTA4 hydrolase) [nM] | SMILES
15 | 760 | 7 | OCCCn1ncc2cc(Oc3ccc(-c4ccn[nH]4)cc3)ccc21 [Example 118, 3-{5-[4-(2H-Pyrazol-3-yl)-phenoxy]-indazol-1-yl}-propan-1-ol]
16 | 430 | 1.1 | O=S1(=O)CC2CC1CN2Cc1ccc2cc(Oc3ccc(-c4ccn[nH]4)cc3)ccc2n1 (stereo not shown) [Example 17, 2-(2,2-Dioxo-2-λ-6-thia-5-aza-bicyclo[2.2.1]hept-5-ylmethyl)-6-[4-(2H-pyrazol-3-yl)-phenoxy]-quinoline]
17 | 300 | 0.32 | COC(=O)c1ccc(CN2C[C@@H]3C[C@H]2CN3Cc2nc3cc(Oc4ccc(-c5ccn[nH]5)cc4)ccc3[nH]2)cc1 [Example 150, 4-((1S,4S)-5-{5-[4-(2H-Pyrazol-3-yl)-phenoxy]-1H-benzoimidazol-2-ylmethyl}-2,5-diaza-bicyclo[2.2.1]hept-2-ylmethyl)-benzoic acid methyl ester]
18 | 230 | 0.8 | O=C1COCCN1C1CCN(Cc2ccc3cc(Oc4ccc(-c5ccn[nH]5)cn4)ccc3n2)CC1 [Example 211, 4-(1-{6-[5-(2H-Pyrazol-3-yl)-pyridin-2-yloxy]-quinolin-2-ylmethyl}-piperidin-4-yl)-morpholin-3-one]
19 | 210 | 0.98 | OC1CCN(Cc2ccc3cc(Oc4ccc(-c5ccn[nH]5)cn4)ccc3n2)CC1 [Example 204, 1-{6-[5-(2H-Pyrazol-3-yl)-pyridin-2-yloxy]-quinolin-2-ylmethyl}-piperidin-4-ol]
20 | 200 | 0.32 | c1cc(-c2ccc(Oc3ccc4[nH]c(CC5CCOCC5)nc4c3)cc2)[nH]n1 [Example 202, 5-[4-(2H-Pyrazol-3-yl)-phenoxy]-2-(tetrahydro-pyran-4-ylmethyl)-1H-benzoimidazole]
21 | 190 | 0.63 | CC(=O)N1CCN(CCc2coc3cc(Oc4ccc(-c5ccn[nH]5)cn4)ccc23)CC1 [Example 136, 1-[4-(2-{6-[5-(2H-Pyrazol-3-yl)-pyridin-2-yloxy]-benzofuran-3-yl}-ethyl)-piperazin-1-yl]-ethanone]
22 | 180 | 0.26 | CC1(C)CCN(Cc2nc3cc(Oc4ccc(-c5ccn[nH]5)cc4)ccc3[nH]2)C1=O [Example 234, 3,3-Dimethyl-1-{5-[4-(2H-pyrazol-3-yl)-phenoxy]-1H-benzoimidazol-2-ylmethyl}-pyrrolidin-2-one]
23 | 170 | 0.24 | CN(Cc1nc2cc(Oc3ccc(-c4ccn[nH]4)cc3)ccc2[nH]1)C(=O)C1CC1 [Example 233, Cyclopropanecarboxylic acid methyl-{5-[4-(2H-pyrazol-3-yl)-phenoxy]-1H-benzoimidazol-2-ylmethyl}-amide]
24 | 160 | 0.37 | O=C(CO)N1CC2CCC1CN2Cc1ccc2cc(Oc3ccc(-c4ccn[nH]4)cn3)ccc2n1 (stereo not shown) [Example 146, 2-Hydroxy-1-(5-{6-[5-(2H-pyrazol-3-yl)-pyridin-2-yloxy]-quinolin-2-ylmethyl}-2,5-diaza-bicyclo[2.2.2]oct-2-yl)-ethanone]
25 | 150 | 0.83 | CC(=O)N1CCN(CCCn2cc3cc(Oc4ccc(-c5ccn[nH]5)cc4)ccc3n2)CC1 [Example 95, 1-[4-(3-{5-[4-(2H-Pyrazol-3-yl)-phenoxy]-indazol-2-yl}-propyl)-piperazin-1-yl]-ethanone]
26 | 120 | 0.056 | CCN(Cc1nc2cc(Oc3ccc(-c4ccn[nH]4)cc3)ccc2[nH]1)[C@@H](C)COC [Example 86, Ethyl-((S)-2-methoxy-1-methyl-ethyl)-{5-[4-(2H-pyrazol-3-yl)-phenoxy]-1H-benzoimidazol-2-ylmethyl}-amine]
27 | 110 | 0.28 | CN(C)CCn1cc2cc(Oc3ccc(-c4ccn[nH]4)cc3)ccc2n1 [Example 158, Dimethyl-(2-{5-[4-(2H-pyrazol-3-yl)-phenoxy]-indazol-2-yl}-ethyl)-amine]
28 | 110 | 0.2 | OC1CN(Cc2ccc3c(ccn3Cc3ccc(-c4ccn[nH]4)cc3)c2)C1 [Example 216, 1-{1-[4-(2H-Pyrazol-3-yl)-benzyl]-1H-indol-5-ylmethyl}-azetidin-3-ol]
29 | 67 | 0.099 | CC[C@H](C)N(C)Cc1nc2cc(Oc3ccc(-c4ccn[nH]4)cc3)ccc2[nH]1 [Example 74, ((S)-sec-butyl)-methyl-{5-[4-(2H-pyrazol-3-yl)-phenoxy]-1H-benzoimidazol-2-ylmethyl}-amine]

From US9403830B2, “Inhibitors of leukotriene production” (Boehringer Ingelheim International GmbH, priority 2012, dated 2016)
